# In ChEMBL document CHEMBL1201861, “Genomics of Drug Sensitity in Cancer screening data, Wellcome Trust Sanger Institute”:
# pIC50: −log10 of the molar value.
# Legend:
# Experiment in all cases: cells
# [1] = tested on: HCC38; type: functional, cell-based, Homo sapiens; settings: Homo sapiens, HCC38;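 further: cell viability assay on the human HCC38 cell line, with IC50 marking the concentration that inhibits cell growth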
# Description: SANGER: Inhibition of human HCC38 cell growth in a cell viability assay.
# [2] = tested on: P30-OHK; type: functional, cell-based; settings: Homo sapiens;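 further: growth inhibition of the P30-OHK cell line, read out with a cell viability assay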
# Description: SANGER: Inhibition of human P30-OHK cell growth in a cell viability assay.
# [3] = tested on: CGTH-W-1; type: functional, cell-based, Homo sapiens; settings: Homo sapiens, CGTH-W-1;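 further: growth inhibition of human CGTH-W-1 cells measured by cell viability assay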
# Description: SANGER: Inhibition of human CGTH-W-1 cell growth in a cell viability assay.
# [4] = tested on: OE19; type: functional, cell-based, Homo sapiens; settings: Homo sapiens, OE19;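 further: growth inhibition of OE19 cells, measured through a cell viability read-out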
# Description: SANGER: Inhibition of human OE19 cell growth in a cell viability assay.
# [5] = tested on: NCI-H1299; type: functional, cell-based, Homo sapiens; settings: Homo sapiens, NCI-H1299;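 further: growth inhibition of human NCI-H1299 cells, read out by a cell viability assay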
# Description: SANGER: Inhibition of human NCI-H1299 cell growth in a cell viability assay.
# [6] = tested on: CAL-33; type: functional, cell-based, Homo sapiens; settings: Homo sapiens, CAL-33;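 further: growth inhibition of CAL-33 cells, read out with a cell viability assay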
# Description: SANGER: Inhibition of human CAL-33 cell growth in a cell viability assay.
# [7] = tested on: RO82-W-1; type: functional, cell-based, Homo sapiens; settings: Homo sapiens, RO82-W-1;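 further: growth inhibition of human RO82-W-1 cells, measured with a cell viability assay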
# Description: SANGER: Inhibition of human RO82-W-1 cell growth in a cell viability assay.
# [8] = tested on: HCE-T; type: functional, cell-based, Homo sapiens; settings: Homo sapiens, HCE-T;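 further: cell viability assay read-out, reporting inhibition of HCE-T cell growth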
# Description: SANGER: Inhibition of human HCE-T cell growth in a cell viability assay.
# [9] = tested on: SK-N-DZ; type: functional, cell-based, Homo sapiens; settings: Homo sapiens, SK-N-DZ;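 further: growth inhibition of the cancer cell line, read out through a viability assay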
# Description: SANGER: Inhibition of human SK-N-DZ cell growth in a cell viability assay.
# [10] = tested on: SK-LU-1; type: functional, cell-based, Homo sapiens; settings: Homo sapiens, SK-LU-1;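 further: cell viability assay measuring growth inhibition of human SK-LU-1 cells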
# Description: SANGER: Inhibition of human SK-LU-1 cell growth in a cell viability assay.
# [11] = tested on: CP66-MEL; type: functional, cell-based, Homo sapiens; settings: Homo sapiens, CP66-MEL;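 further: growth inhibition of CP66-MEL cells determined in a cell viability assay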
# Description: SANGER: Inhibition of human CP66-MEL cell growth in a cell viability assay.
# [12] = tested on: EKVX; type: functional, cell-based, Homo sapiens; settings: Homo sapiens, EKVX;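 further: growth inhibition of human EKVX cells, read out with a cell viability assay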
# Description: SANGER: Inhibition of human EKVX cell growth in a cell viability assay.
# [13] = tested on: T47D; type: functional, cell-based, Homo sapiens; settings: Homo sapiens, T47D;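 further: growth inhibition of human T47D cells, measured with a cell viability assay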
# Description: SANGER: Inhibition of human T47D cell growth in a cell viability assay.
# [14] = tested on: HO-1-N-1; type: functional, cell-based, Homo sapiens; settings: Homo sapiens, HO-1-N-1;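 further: growth inhibition of human HO-1-N-1 cells, read out with a cell viability assay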
# Description: SANGER: Inhibition of human HO-1-N-1 cell growth in a cell viability assay.
# [15] = tested on: DU-145; type: functional, cell-based, Homo sapiens; settings: Homo sapiens, DU-145
# Description: SANGER: Inhibition of human DU-145 cell growth in a cell viability assay.
# [16] = tested on: D-263MG; type: functional, cell-based, Homo sapiens; settings: Homo sapiens, D-263MG
# Description: SANGER: Inhibition of human D-263MG cell growth in a cell viability assay.
# [17] = tested on: HD-MY-Z; type: functional, cell-based, Homo sapiens; settings: Homo sapiens, HD-MY-Z;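 further: growth inhibition of HD-MY-Z cells, read out with a cell viability assay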
# Description: SANGER: Inhibition of human HD-MY-Z cell growth in a cell viability assay.
# [18] = tested on: A204; type: functional, cell-based, Homo sapiens; settings: Homo sapiens, A204;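 further: growth inhibition of human A204 cells, read out with a cell viability assay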
# Description: SANGER: Inhibition of human A204 cell growth in a cell viability assay.
# [19] = tested on: SW872; type: functional, cell-based, Homo sapiens; settings: Homo sapiens, SW872;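 further: growth inhibition of SW872 cells, read out by a viability assay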
# Description: SANGER: Inhibition of human SW872 cell growth in a cell viability assay.
# [20] = tested on: SW48; type: functional, cell-based, Homo sapiens; settings: Homo sapiens, SW48;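 further: growth inhibition of SW48 cells, read out with a cell viability assay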
# Description: SANGER: Inhibition of human SW48 cell growth in a cell viability assay.
# [21] = tested on: NCI-H727; type: functional, cell-based, Homo sapiens; settings: Homo sapiens, NCI-H727;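 further: growth inhibition of human NCI-H727 cells, read out with a cell viability assay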
# Description: SANGER: Inhibition of human NCI-H727 cell growth in a cell viability assay.
# [22] = tested on: SHP77; type: functional, cell-based, Homo sapiens, SHP-77; settings: Homo sapiens, SHP77;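 further: growth inhibition of human SHP-77 cells measured by a cell viability assay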
# Description: SANGER: Inhibition of human SHP-77 cell growth in a cell viability assay.
# [23] = tested on: NCI-H69; type: functional, cell-based; settings: Homo sapiens;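 further: growth inhibition of the cell line, read out with a cell viability assay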
# Description: SANGER: Inhibition of human NCI-H69 cell growth in a cell viability assay.
# [24] = tested on: NB12; type: functional, cell-based, Homo sapiens; settings: Homo sapiens, NB12;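 further: growth inhibition of human NB12 cells, read out by a cell viability assay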
# Description: SANGER: Inhibition of human NB12 cell growth in a cell viability assay.
# [25] = tested on: GI-1; type: functional, cell-based, Homo sapiens; settings: Homo sapiens, GI-1;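 further: growth inhibition of human GI-1 cells, measured with a cell viability readout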
# Description: SANGER: Inhibition of human GI-1 cell growth in a cell viability assay.
# [26] = tested on: ESS-1; type: functional, cell-based, Homo sapiens; settings: Homo sapiens, ESS-1;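 further: growth inhibition of human ESS-1 cells, read out by a cell viability assay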
# Description: SANGER: Inhibition of human ESS-1 cell growth in a cell viability assay.
# [27] = tested on: NH-12; type: functional, cell-based, Homo sapiens; settings: Homo sapiens, NH-12;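 further: growth inhibition of NH-12 cells, read out with a cell viability assay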
# Description: SANGER: Inhibition of human NH-12 cell growth in a cell viability assay.
# [28] = tested on: NCI-H1693; type: functional, cell-based, Homo sapiens; settings: Homo sapiens, NCI-H1693;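 further: growth inhibition of the human cell line, read out with a cell viability assay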
# Description: SANGER: Inhibition of human NCI-H1693 cell growth in a cell viability assay.
# [29] = tested on: MEL-HO; type: functional, cell-based, Homo sapiens; settings: Homo sapiens, MEL-HO
# Description: SANGER: Inhibition of human MEL-HO cell growth in a cell viability assay.
# [30] = tested on: CAL-62; type: functional, cell-based, Homo sapiens; settings: Homo sapiens, CAL-62;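 further: growth inhibition of CAL-62 cells, read out with a cell viability assay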
# Description: SANGER: Inhibition of human CAL-62 cell growth in a cell viability assay.
# [31] = tested on: DOK; type: functional, cell-based, Homo sapiens; settings: Homo sapiens, DOK;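 further: cell viability assay read-out, values reflect inhibition of cell growth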
# Description: SANGER: Inhibition of human DOK cell growth in a cell viability assay.
# [32] = tested on: KP-N-YS; type: functional, cell-based; settings: Homo sapiens;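 further: cell viability assay measuring inhibition of cell line growth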
# Description: SANGER: Inhibition of human KP-N-YS cell growth in a cell viability assay.
# [33] = tested on: 697; type: functional, cell-based; settings: Homo sapiens
# Description: SANGER: Inhibition of human 697 cell growth in a cell viability assay.
# [34] = tested on: MN-60; type: functional, cell-based; settings: Homo sapiens;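 further: growth inhibition of the MN-60 cell line, determined with a cell viability assay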
# Description: SANGER: Inhibition of human MN-60 cell growth in a cell viability assay.
# [35] = tested on: Mo; type: functional, cell-based; settings: Homo sapiens
# Description: SANGER: Inhibition of human Mo-T cell growth in a cell viability assay.
# [36] = tested on: BCPAP; type: functional, cell-based, Homo sapiens; settings: Homo sapiens, BCPAP;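 further: growth inhibition of BCPAP cells, read out in a cell viability assay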
# Description: SANGER: Inhibition of human BCPAP cell growth in a cell viability assay.
# [37] = tested on: JVM-3; type: functional, cell-based; settings: Homo sapiens;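 further: growth inhibition of human JVM-3 cells, read out with a cell viability assay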
# Description: SANGER: Inhibition of human JVM-3 cell growth in a cell viability assay.
# [38] = tested on: ACN; type: functional, cell-based, Homo sapiens; settings: Homo sapiens, ACN;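 further: growth inhibition of the human ACN cell line, read out via cell viability testing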
# Description: SANGER: Inhibition of human ACN cell growth in a cell viability assay.
# [39] = tested on: BPH-1; type: functional, cell-based, Homo sapiens; settings: Homo sapiens, BPH-1;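 further: cell viability assay measuring growth inhibition of human BPH-1 cells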
# Description: SANGER: Inhibition of human BPH-1 cell growth in a cell viability assay.
# [40] = tested on: UO-31; type: functional, cell-based; settings: Homo sapiens;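 further: cell viability assay measuring inhibition of cell growth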
# Description: SANGER: Inhibition of human U031 cell growth in a cell viability assay.
# [41] = tested on: COLO-741; type: functional, cell-based, Homo sapiens; settings: Homo sapiens, COLO-741
# Description: SANGER: Inhibition of human COLO-741 cell growth in a cell viability assay.
# [42] = tested on: NCI-H446; type: functional, cell-based; settings: Homo sapiens;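 further: growth inhibition of NCI-H446 cells determined by a cell viability assay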
# Description: SANGER: Inhibition of human NCI-H446 cell growth in a cell viability assay.
# [43] = tested on: D-392MG; type: functional, cell-based, Homo sapiens; settings: Homo sapiens, D-392MG
# [44] = tested on: MMAC-SF; type: functional, cell-based, Homo sapiens; settings: Homo sapiens, MMAC-SF;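 further: growth inhibition of human MMAC-SF cells, read out with a cell viability assay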
# Description: SANGER: Inhibition of human MMAC-SF cell growth in a cell viability assay.
# [45] = tested on: MS-1; type: functional, cell-based; settings: Homo sapiens;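 further: growth inhibition of MS-1 cells, read out by cell viability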
# Description: SANGER: Inhibition of human MS-1 cell growth in a cell viability assay.
# [46] = tested on: OCI-AML2; type: functional, cell-based; settings: Homo sapiens;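 further: growth inhibition of OCI-AML2 cells, read out with a cell viability assay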
# Description: SANGER: Inhibition of human OCI-AML2 cell growth in a cell viability assay.
# [47] = tested on: MOLT-4; type: functional, cell-based; settings: Homo sapiens;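 further: growth inhibition of MOLT-4 cells, determined with a cell viability readout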
# Description: SANGER: Inhibition of human MOLT-4 cell growth in a cell viability assay.
# [48] = tested on: DEL; type: functional, cell-based; settings: Homo sapiens;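 further: growth inhibition of the human DEL cell line, read out with a cell viability assay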
# Description: SANGER: Inhibition of human DEL cell growth in a cell viability assay.
# [49] = tested on: Hs-578T; type: functional, cell-based, Homo sapiens; settings: Homo sapiens, Hs-578T
# Description: SANGER: Inhibition of human Hs-578-T cell growth in a cell viability assay.
# [50] = tested on: COLO-684; type: functional, cell-based; settings: Homo sapiens
# Description: SANGER: Inhibition of human COLO-684 cell growth in a cell viability assay.
# [51] = tested on: HC-1; type: functional, cell-based; settings: Homo sapiens;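 further: growth inhibition of HC-1 cells measured by a cell viability assay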
# Description: SANGER: Inhibition of human HC-1 cell growth in a cell viability assay.
# [52] = tested on: EC-GI-10; type: functional, cell-based, Homo sapiens; settings: Homo sapiens, EC-GI-10
# Description: SANGER: Inhibition of human EC-GI-10 cell growth in a cell viability assay.
# [53] = tested on: UMUC3; type: functional, cell-based, Homo sapiens; settings: Homo sapiens, UMUC3;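 further: growth inhibition of human UM-UC-3 cells, read out with a cell viability assay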
# Description: SANGER: Inhibition of human UM-UC-3 cell growth in a cell viability assay.
smiles,measurement,setting,value
COc1cc([C@@H]2c3cc4c(cc3[C@@H](O[C@@H]3O[C@@H]5CO[C@@H](C)O[C@H]5[C@H](O)[C@H]3O)[C@H]3COC(=O)[C@H]23)OCO4)cc(OC)c1O [ETOPOSIDE],pIC50,[1],5.64
same,pIC50,[2],5.92
same,pIC50,[3],7.24
same,pIC50,[4],< 4.80
same,pIC50,[5],5.68
same,pIC50,[6],6.16
same,pIC50,[7],< 4.80
same,pIC50,[8],< 4.80
same,pIC50,[9],< 4.80
same,pIC50,[10],5.89
same,pIC50,[11],5.20
same,pIC50,[12],< 4.80
same,pIC50,[13],4.93
same,pIC50,[14],5.62
same,pIC50,[15],6.23
same,pIC50,[16],< 4.80
same,pIC50,[17],5.07
same,pIC50,[18],6.63
same,pIC50,[19],6.19
same,pIC50,[20],6.06
same,pIC50,[21],< 4.80
same,pIC50,[22],< 4.80
same,pIC50,[23],5.09
same,pIC50,[24],5.97
same,pIC50,[25],6.15
same,pIC50,[26],6.28
same,pIC50,[27],6.17
same,pIC50,[28],< 4.80
same,pIC50,[29],6.14
same,pIC50,[30],6.07
same,pIC50,[31],< 4.80
same,pIC50,[32],5.37
same,pIC50,[33],6.61
same,pIC50,[34],< 4.80
same,pIC50,[35],< 4.80
same,pIC50,[36],6.13
same,pIC50,[37],< 4.80
same,pIC50,[38],7.10
same,pIC50,[39],6.03
same,pIC50,[40],4.95
same,pIC50,[41],< 4.80
same,pIC50,[42],< 4.80
same,pIC50,[43],< 4.80
same,pIC50,[44],5.16
same,pIC50,[45],5.25
same,pIC50,[46],6.25
same,pIC50,[47],6.38
same,pIC50,[48],6.51
same,pIC50,[49],< 4.80
same,pIC50,[50],< 4.80
same,pIC50,[51],6.27
same,pIC50,[52],< 4.80
same,pIC50,[53],5.94
Cc1cnc(-c2cnc(NCCNc3ccc(C#N)cn3)nc2-c2ccc(Cl)cc2Cl)[nH]1 [LADUVIGLUSIB],pIC50,[1],< 5.59
same,pIC50,[2],< 5.59
same,pIC50,[3],< 5.59
same,pIC50,[4],< 5.59
same,pIC50,[5],< 5.59
same,pIC50,[6],< 5.59
same,pIC50,[7],< 5.59
same,pIC50,[8],< 5.59
same,pIC50,[9],< 5.59
same,pIC50,[10],< 5.59
same,pIC50,[11],< 5.59
same,pIC50,[12],< 5.59
same,pIC50,[13],< 5.59
same,pIC50,[14],< 5.59
same,pIC50,[15],< 5.59
same,pIC50,[16],< 5.59
same,pIC50,[17],< 5.59
same,pIC50,[18],< 5.59
same,pIC50,[19],< 5.59
same,pIC50,[20],< 5.59
same,pIC50,[21],< 5.59
same,pIC50,[22],< 5.59
same,pIC50,[23],< 5.59
same,pIC50,[24],< 5.59
same,pIC50,[25],< 5.59
same,pIC50,[26],< 5.59
same,pIC50,[27],< 5.59
same,pIC50,[28],< 5.59
same,pIC50,[29],< 5.59
same,pIC50,[30],< 5.59
same,pIC50,[31],< 5.59
same,pIC50,[32],< 5.59
same,pIC50,[33],< 5.59
same,pIC50,[34],< 5.59
same,pIC50,[35],< 5.59
same,pIC50,[36],5.78
same,pIC50,[37],< 5.59
same,pIC50,[38],< 5.59
same,pIC50,[39],< 5.59
same,pIC50,[40],< 5.59
same,pIC50,[41],< 5.59
same,pIC50,[42],< 5.59
same,pIC50,[43],< 5.59
same,pIC50,[44],< 5.59
same,pIC50,[45],< 5.59
same,pIC50,[46],< 5.59
same,pIC50,[47],< 5.59
same,pIC50,[48],< 5.59
same,pIC50,[49],< 5.59
same,pIC50,[50],< 5.59
same,pIC50,[51],< 5.59
same,pIC50,[52],< 5.59
same,pIC50,[53],< 5.59
